Laboratory results: patent US10053447B2, “Fluorescent compounds” (Pierce Biotechnology, Inc, priority 2010, dated 2018)

What was measured:
[1] = tested on: mouse IgG, rabbit IgG, biotinylated bovine serum albumin (BBSA); assay: Functional assay, summary over GAM, GAR and SA conjugates; type: binding; settings: compared with DyLight 549 or DyLight 649 conjugates
Method: Performance of the dye-GAM conjugates, dye-GAR conjugates, and dye-SA conjugates was evaluated in a functional assay. Wells of a 96 white opaque plate were coated with target proteins mouse IgG immunoglobulin, rabbit IgG immunoglobulin, or biotinylated bovine serum albumin (BBSA). One hundred μl mouse or rabbit IgG or BBSA at a concentration of 10 μg/ml was applied to the corresponding wells in columns 1 and 2. The target proteins were serially diluted 1:1 from the wells in columns 2 to 11 using 100 μl PBS. One hundred 100 μl of the samples from the wells in column 11 were discarded. One hundred μl PBS was added to the wells in column 12. The plates were incubated overnight at 4° C. and then blocked 2×200 μl with Thermo Scientific SuperBlock® Blocking Buffer. The coated plates were washed 2×200 μl with PBS-Tween and 1×200 μl with PBS. Conjugates diluted in PBS to 4 μg/ml were added to the corresponding plates (100 μl/well) and then incubated for 1 h in the dark. The plates were washed with 2×200 μl with PBS-Tween and 1×200 μl with PBS and filled with PBS buffer (100 μl/well) prior to scanning on Tecan Safire using 562 nmexcitation/576 nmemission to detect fluorescence intensity.
Performance of the dye-GAM conjugates and dye-GAR conjugates was evaluated in a functional assay. Wells of a 96 well white opaque plate were coated with mouse IgG, or rabbit IgG. One hundred μl mouse or rabbit IgG at a concentration of 10 μg/ml was applied to the corresponding wells in columns 1 and 2. The IgG proteins were serially diluted 1:1 from the wells in columns 2 to 11 using 100 μl PBS. One hundred 100 μl of the samples from the wells in column 11 were discarded. One hundred μl PBS was added to the wells in column 12. […] The plates were washed with 2×200 μl with PBS-Tween and 1×200 μl with PBS and filled with PBS buffer (100 μl/well) prior to scanning on Tecan Safire using the Alexa 647 setting (650 nmexcitation/665 nmemission) and the DyLight 649 setting (654 nmexcitation/673 nmemission to detect fluorescence intensity

[2] = tested on: U2OS cells; A550 cells; assay: Immunofluorescence cell based assays, summary statements; parameters: species or system human; settings: GAM and GAR conjugates
Method: The inventive compounds and commercial dye were evaluated for immunofluorescence in cell based assays using the following protocol. Plates containing U2OS cells (human osteosarcoma cell line) were fixed in 4% paraformaldehyde in PBS/0.1% Triton X-100 for 15 min at room temperature. The cells were then permeabilized with 2% BSA in PBS/0.1% Triton X-100 for 30 min at room temperature. Diluted primary antibodies in PBS/0.1% Triton X-100 were added to the plates and incubated overnight at 4° C. The plates were washed 3×100 μl with PBS. Based on the calculated protein concentrations, the conjugates were diluted to 4 μg/ml (1:250 from 1 mg/ml stock) in PBS/0.1% Triton X-100 and added to the plates (50 μl/well) and incubated 1 h in the dark at room temperature. The plates were washed 3×100 μl with PBS. One hundred μl of 2 μg/ml Hoechst dye in PBS was added per well. The plates were then scanned on an ArrayScan® Plate Reader for imaging and quantitation.
The inventive compounds and commercial dyes were evaluated for immunofluorescence in cell based assays using the following protocol. Plates containing A550 cells (adenocarcinoma human alveolar basal epithelial cells, P5, Sep. 23, 2010) and stored at −80° C. were placed at 50° C. for 30 min. The storage buffer (PBS) was removed and then the cells were permeabilized for 15 min (100 μl/well) with 0.1% Triton-X100 in 1×PBS buffer. The plates were blocked for 30 min in 2% BSA in 1×PBS-0.1% Triton-X100 and then incubated with primary antibodies diluted in 2% BSA in 1×PBS, 0.1% Trion-X100, overnight at 4° C. […] The remaining wells were incubated in blocking buffer only (no primary antibody). After overnight incubation, the antibody solution was removed from the wells, and the plates were washed with PBS-Tween (2×100 μl/well). The labeled secondary antibody conjugates, diluted to 4 μg/ml in PBS were added to corresponding wells and incubated for 1 h at room temperature (about 20° C. to about 22° C.). The plates were washed 3×100 μl/well with PBS and Hoechst stain diluted 1 μg/ml in PBS were added to each well (100 μl/well) of each plate. The plates were then scanned on the Thermo Scientific ArrayScan® HCS Reader for imaging and quantitation.

[3] = molecular target: T1, streptavidin (SA) (Streptomyces avidinii, UniProt P22629); assay: Labeling efficiency (degree of labeling, mole dye to mole protein ratio) of streptavidin; settings: SA, NHS ester, 5X molar excess
Method: Inventive and commercial compounds, each as the NHS ester, were conjugated to goat anti-mouse (GAM), goat anti-rabbit (GAR) antibodies, and streptavidin (SA). GAM, GAR, and SA, at 10 mg/ml in phosphate buffered saline (PBS), were dialyzed against 50 mM borate buffer, pH 8.5. The compounds were reconstituted in dimethylformamide (DMF) at 10 mg/ml and combined at 2×, 4×, 5×, 7.5×, or 10× molar excess with GAM, GAR, or SA for 2 h at room temperature to label the antibodies or SA.
The labeled compounds, also termed dyes or labels, were subjected to PDDR to remove the unlabeled (free) compound; 100 μl of the packed resin was used per mg of protein purified. The purified antibody-labeled dyes were then diluted 1:50 in PBS and scanned for absorbance from 700 nm to 230 nm to determine the protein concentration, and to determine the mole dye to mole protein ratio. Each conjugate was diluted 1:10 in 50% glycerol and heated in the presence of 10 mM dithiothreitol (DTT) for 5 min at 95° C., then separated by electrophoresis on polyacrylamide gels in the presence of sodium dodecyl sulfate (SDS-PAGE). The gels were scanned using the Typhoon 9400 Imager to verify removal of the unconjugated compound. Labeling efficiency was compared, with results showing degree of labeling below.
Compounds 1, 2, and 3, each as the NHS ester, and DyLight 649-NHS were conjugated to goat anti-mouse (GAM) and goat anti-rabbit (GAR) antibodies. GAM and GAR, at a concentration of 10 mg/ml in phosphate buffered saline (PBS), were dialyzed against 50 mM borate buffer, pH 8.5. The compounds were reconstituted in dimethylformamide (DMF) at 10 mg/ml. To label the antibodies, the compounds were added at 2.5× molar excess and 5× molar excess for 2 h at room temperature. Streptavidin (SA) was reconstituted in PBS buffer, pH 7.2, and 50 mM borate buffer, pH 8.5, and labeled with 2.5× molar excess and 4× molar excess of the compound.
The antibody-labeled compounds, also termed dyes or labels, were subjected to gel filtration chromatography (15 cm×0.8 cm columns) or to the PDDR to remove the unlabeled (free) compound; 100 μl of the packed resin was used per mg of protein purified. The purified antibody-labeled dyes were then diluted 1:100 in PBS and scanned for absorbance from 700 nm to 230 nm to determine the protein concentration, and to determine the mole dye to mole protein ratio. Each conjugate was diluted 1:10 in 50% glycerol and heated in the presence of 10 mM dithiothreitol (DTT) for 5 min at 95° C., then separated by electrophoresis on polyacrylamide gels in the presence of sodium dodecyl sulfate (SDS-PAGE). The gels were scanned using the Typhoon 9400 Imager to verify removal of the unconjugated compound. Labeling efficiency was compared using labeling of the compounds to GAM antibody at a 2.5× molar excess of compound, with results shown below.
Labeling efficiency was also compared using labeling of the dyes to streptavidin (SA) at either a 2.5 fold or a 4 fold molar excess of the dye, with SA in PBS, pH 7.2, and borate buffer, pH 8.5.
650 Compound 1 (isomer 2)-TFP, 650 Compound 1 (isomer 1)-TFP, 650 Compound 1 (isomer 2)-TFP, 650 Compound 1-NHS, and DyLight 649-NHS were conjugated to GAM, GAR, and SA. GAM and GAR, at a concentration of 10 mg/ml in phosphate buffered saline (PBS), were dialyzed against 50 mM borate buffer, pH 8.5. The compounds were reconstituted in dimethylformamide (DMF) at 10 mg/ml and used to label antibodies at 5× molar excess of compound for two hours at room temperature to label the antibodies. SA was reconstituted in 50 mM borate buffer, pH 8.5, and combined with 4× molar excess to label the SA.
The antibody-conjugated and SA-conjugated compounds, also termed dyes or labels, were subjected to the PDDR to remove the unlabeled (free) compound. The purified antibodies and SA were then diluted 1:25 in PBS and scanned for absorbance from 700 nm to 230 nm to determine the protein concentration, and to determine the mole dye to mole protein ratio. […]

[4] = molecular target: T1, streptavidin (SA); assay: as above; settings: NHS ester, 3X molar excess

T1 sequence (P22629 25-183, species assumed): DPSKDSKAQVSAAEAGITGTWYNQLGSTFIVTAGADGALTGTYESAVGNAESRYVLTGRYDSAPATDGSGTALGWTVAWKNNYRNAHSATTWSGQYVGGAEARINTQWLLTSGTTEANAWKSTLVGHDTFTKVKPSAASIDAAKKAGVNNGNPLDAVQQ

Molecule	Performance of conjugates (GAM, GAR, SA) in the functional assay in terms of signal-to-noise [1]	Immunofluorescence performance of conjugates compared with commercial DyLight dye ([2]; tri sodium salt)	D/P 5X [3]	D/P 3X [4]	Immunofluorescence performance of conjugates compared with commercial DyLight dye [2]
COCC[N+]1=C(/C=C/C=C/C=C2/N(CCCCCC(=O)O)c3ccc(S(=O)(=O)O)cc3C2(C)CCCS(=O)(=O)O)C(C)(CCCS(=O)(=O)O)c2cc(S(=O)(=O)O)ccc21.[Na+].[Na+].[Na+] (stereo not shown) [650 Compound 1, 2-{(1E,3E)-5-[1-(5-Carboxypentyl)-3-methyl-5-sulfo-3-(3-sulfopropyl)-1,3-dihydro-indol-(2E)-ylidene]-penta-1,3-dienyl}-1-(2-methoxy-ethyl)-3-methyl-5-sulfo-3-(3-sulfopropyl)-3H-indolium tri sodium salt]	superior to DyLight 649 conjugates	at least similar performance to DyLight 649 conjugates (GAM, GAR), and in some cases superior performance	–	–	–
Alexa 750-SA: Alexa 750 conjugated to streptavidin (SA) [reference compound]	–	–	4.7	3.3	–
COCCOCCOCC[N+]1=C(/C=C/C=C/C=C2/N(CCCCCC(=O)O)c3ccc(S(=O)(=O)O)cc3C2(C)CCCS(=O)(=O)O)C(C)(CCCS(=O)(=O)O)c2cc(S(=O)(=O)O)ccc21.[Na+].[Na+].[Na+] (stereo not shown) [650 Compound 3, 2-{(1E,3E)-5-[1-(5-carboxypentyl)-3-methyl-5-sulfo-3-(3-sulfopropyl)-1,3-dihydro-indol-(2E)-ylidene]-penta-1,3-dienyl}-1-{2-[2-(2-methoxy-ethoxy)-ethoxy]-ethyl}-3-methyl-5-sulfo-3-(3-sulfopropyl)-3H-indolium tri sodium salt]	superior to DyLight 649 conjugates	–	–	–	at least similar performance to DyLight 649 conjugates (GAM, GAR), and in some cases superior performance
COCCOCC[N+]1=C(/C=C/C=C/C=C2/N(CCCCCC(=O)O)c3ccc(S(=O)(=O)O)cc3C2(C)CCCS(=O)(=O)O)C(C)(CCCS(=O)(=O)O)c2cc(S(=O)(=O)O)ccc21.[Na+].[Na+].[Na+] (stereo not shown) [650 Compound 2, 2-{(1E,3E)-5-[1-(5-carboxypentyl)-3-methyl-5-sulfo-3-(3-sulfopropyl)-1,3-dihydroindol-(2E)-ylidene]-penta-1,3-dienyl}-1-[2-(2-methoxy-ethoxy)-ethyl]-3-methyl-5-sulfo-3-(3-sulfopropyl)-3H-indolium tri sodium salt]	superior to DyLight 649 conjugates	–	–	–	at least similar performance to DyLight 649 conjugates (GAM, GAR), and in some cases superior performance
DyLight 750-SA: DyLight 750 conjugated to streptavidin (SA) [reference compound]	–	–	4.0	2.5	–
